Data on four compounds can be found in EP0346694A1, “Substituted 3-Aminosydnone imines, process for their preparation and their use” (CASSELLA Aktiengesellschaft, priority 1988, dated 1989).

Each structure is given as a SMILES string. Structures can show the parent of a compound that is named as a salt.

This test concerns Spiralstreifen der Arteria pulmonalis des Meerschweinchens. The experiment in a line: Relaxation of potassium-depolarised, CaCl₂-contracted spiral strips of guinea pig pulmonary artery (modified method of Godfraind and Kaba / Schüman et al). The format is cell-based, Meerschweinchen. Conditions: Cavia porcellus; concentration inhibiting the contraction by 50 %; strips depolarised with 40 mmol/l Kalium in calcium-free Tyrode solution, contraction by 0,5 mmol/l CaCl₂; cumulative addition; mean of 4 to 6 strips; read-out: IC₅₀ (converted). The text has this:
Die pharmakologische Wirkung der verbindungen der Formel I wurde nach einer modifizierten Methode von Godfraind and Kaba (Arch.Int. Pharmacodyn. Ther. 196, (Suppl) 35 bis 49, 1972) und von Schüman et al (Naunyn-Schmiedeberg's Arch. Pharmacol. 289, 409 bis 418, 1975) ermittelt. Dabei werden Spiralstreifen der Arteria pulmonalis des Meerschweinchens nach Äquilibrierung in calciumfreier Tyrodelösung mit 40 mmol/l Kalium depolarisiert. Ein Zusatz von 0,5 mmol/l CaCl₂ löst dann eine Kontraktion aus. Die relaxierende Wirkung der Prüfsubstanz wird durch kumulative Zugabe in 1/2 log 10 abgestuften Konzentrationen ermittelt. Aus der Konzentrationswirkungskurve (Abszisse: -log mol/l Prüfsubstanz, Ordinate: % Hemmung der maximalen Kontraktion, Mittelwert von 4 bis 6 Gefäß-streifen) wird die Konzentration der Prüfsubstanz ermittelt, welche die Kontraktion um 50 % hemmt (= IC₅₀, mol/l). In der folgenden Tabelle sind die so erhaltenen IC₅₀-Werte angegeben. Wie der Vergleich mit dem IC₅₀-Wert 3·10⁻⁴ für die bekannte Verbindung Molsidomin (N-Ethoxycarbonyl-3-morpholino-sydnonimin), vgl. DE-B-16 95 897, ergibt, liegen die Werte für die Verbindungen der Formel I erheblich günstiger.

Consider `CC1(C)COCCN1[n+]1cc([NH-])on1` [a, 3-(3.3-Dimethylmorpholin-4-yl)-sydnonimin-hydrochlorid], for which the IC50 was 1000 nM.
`CC1(C)CCCCN1[n+]1cc([NH-])on1` [b, 3-(2.2-Dimethylpiperidin-1-yl)-sydnonimin-hydrochlorid]: the IC50 was 1000 nM.
The figure for `CC(C)N1CCN([n+]2cc([NH-])on2)C(C)(C)C1` [c, 3-(4-Isopropyl-2.2-dimethyl-piperazin-1-yl)-sydnonimin-dihydrochlorid] is 1000 nM.
For `CCOC(=O)[N-]c1c[n+](N2CCOCC2)no1` [d, N-Ethoxycarbonyl-3-morpholino-sydnonimin, reference compound], the IC50 was 300000 nM.
